The values that follow come from patent US8518931B2, “Compounds and compositions as kinase inhibitors” (IRM LLC, priority 2008, dated 2013).

For this experiment, the target named is T1, NPM-ALK (Homo sapiens, UniProt Q9UM73).
T1 construct: nucleophosmin (NPM, NPM1; human P06748) fusion partner; expressed in transfected cells; host or cells: murine BaF3 cells (DSMZ), transfected with pCIneo (Promega) coding for NPM-ALK and selected with G418; the other entry of the earlier key: Npm1 (Q61937, Nucleophosmin)
T1 sequence (Q9UM73 with tags, fused parts or gaps): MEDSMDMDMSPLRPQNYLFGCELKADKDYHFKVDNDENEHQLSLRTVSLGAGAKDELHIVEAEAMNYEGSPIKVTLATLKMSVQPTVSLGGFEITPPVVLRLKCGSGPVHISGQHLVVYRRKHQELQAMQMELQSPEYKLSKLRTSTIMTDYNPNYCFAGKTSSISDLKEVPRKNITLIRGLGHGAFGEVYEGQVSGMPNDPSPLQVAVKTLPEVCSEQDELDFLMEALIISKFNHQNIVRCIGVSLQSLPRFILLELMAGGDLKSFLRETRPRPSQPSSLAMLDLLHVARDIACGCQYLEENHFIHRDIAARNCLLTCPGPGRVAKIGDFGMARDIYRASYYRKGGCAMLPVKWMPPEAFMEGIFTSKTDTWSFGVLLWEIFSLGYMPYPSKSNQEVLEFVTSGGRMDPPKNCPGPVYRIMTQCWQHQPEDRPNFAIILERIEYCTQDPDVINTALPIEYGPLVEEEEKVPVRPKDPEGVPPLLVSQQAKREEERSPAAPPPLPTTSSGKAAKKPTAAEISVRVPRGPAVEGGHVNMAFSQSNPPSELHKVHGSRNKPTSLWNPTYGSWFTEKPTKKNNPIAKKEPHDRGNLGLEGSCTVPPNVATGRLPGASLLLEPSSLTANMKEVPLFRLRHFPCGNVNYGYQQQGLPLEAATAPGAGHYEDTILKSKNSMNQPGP
Put plainly: NPM-ALK BaF3 assay (growth inhibition of BaF3-NPM-ALK cells). Format: cell-based. As to conditions: human NPM-ALK overexpressing murine BaF3 cells. The text has this:
The expression of NPM-ALK may be achieved by transfecting the BaF3 cell line with an expression vector pClneo™ (Promega Corp., Madison Wis., USA) coding for NPM-ALK and subsequent selection of G418 resistant cells. Non-transfected BaF3 cells depend on IL-3 for cell survival. In contrast, NPM-ALK expressing BaF3 cells (named BaF3-NPM-ALK hereinafter) can proliferate in the absence of IL-3 because they obtain proliferative signal through NPM-ALK kinase. Putative inhibitors of the NPM-ALK kinase therefore abolish the growth signal and may result in antiproliferative activity. The antiproliferative activity of putative inhibitors of the NPM-ALK kinase can however be overcome by addition of IL-3, which provides growth signals through an NPM-ALK independent mechanism. An analogous cell system using FLT3 kinase has also been described (see, E Weisberg et al. Cancer Cell; 1, 433-443 (2002)).
The inhibitory activity of the compounds of the invention may be determined as follows. In general, BaF3-NPM-ALK cells (15,000/microtitre plate well) are transferred to 96-well microtitre plates. Test compounds dissolved in dimethyl sulfoxide (DMSO) are added in a series of concentrations (dilution series) in such a manner that the final concentration of DMSO is not greater than 1% (v/v). After the addition, the plates are incubated for two days during which the control cultures without test compound are able to undergo two cell-division cycles. The growth of the BaF3-NPM-ALK cells is measured by means of YOPRO™ staining [T Idziorek et al. J. Immunol. Methods; 185: 249-258 (1995)]: 25 μl of lysis buffer comprising 20 mM sodium citrate, pH 4.0, 26.8 mM sodium chloride, 0.4% NP40, 20 mM EDTA and […] to each well. Cell lysis is completed within 60 min at room temperature and total amount of YOPRO™ bound to DNA is determined by measurement using the Cytofluor II 96-well reader (PerSeptive Biosystems) with the following settings: Excitation (nm) 485/20 and Emission (nm) 530/25.
IC50 values may be determined by a computer-aided system using the formula: IC50=[(ABStest−ABSstart)/(ABScontrol−ABSstart)]×100·(ABS=absorption)
In general, compounds of the invention have IC50 values from 1 nM to 10 μM. In some examples, compounds of the invention have IC50 values from 0.01 μM to 5 μM. In other examples, compounds of the invention have IC50 values from 0.01 μM to 1 μM, or more particularly from 1 nM to 1 μM.
Table 1 describes representative compounds of the invention, prepared following the procedures described above. IC50 values are as measured in an NPM-ALK BaF3 assay.

Molecule `COc1cc(C2CCN(C(=O)[C@H](C)N3CCCC3)CC2)c(C)cc1Nc1nc(Nc2ccccc2S(=O)(=O)C(C)C)n2nccc2n1` [Ex 80] showed an IC50 of 0.033 µM.

On to `COc1cc(C2CCN(C(=O)[C@@H](C)N3CCC3)CC2)c(C)cc1Nc1nc(Nc2ccccc2S(=O)(=O)C(C)C)n2nccc2n1` [Ex 81], for which 0.026 µM corresponded to half-maximal inhibition (IC50). This IC50 and that of the molecule before are within 1.5-fold of each other.

`COc1cc(C2CCN(C3CCOCC3)CC2)c(C)cc1Nc1nc(Nc2ccccc2S(=O)(=O)C(C)C)n2nccc2n1` [Ex 83] displayed an IC50 of 0.023 µM. This IC50 and that of the molecule before are within 1.5-fold of each other.

The molecule `COc1cc(C2CCN(C3CCSCC3)CC2)c(C)cc1Nc1nc(Nc2ccccc2S(=O)(=O)C(C)C)n2nccc2n1` [Ex 84] showed an IC50 of 0.025 µM. The IC50 values of the last two molecules are within 1.5-fold of each other.

On to `COc1cc(C2CCN(C(=O)[C@H]3COC(C)(C)CN3)CC2)c(C)cc1Nc1nc(Nc2ccccc2S(=O)(=O)C(C)C)n2nccc2n1` [Ex 85], for which it took 0.034 µM to reach half-maximal inhibition (IC50).

Regarding `COc1cc(C2CCN(C(=O)[C@H](N)CO)CC2)c(C)cc1Nc1nc(Nc2ccccc2S(=O)(=O)C(C)C)n2nccc2n1` [Ex 86], inhibition was half-maximal at 0.034 µM (IC50). This lies in the double-digit nanomolar range.

`COc1cc(C2CCN(C(=O)[C@@H]3COC(C)(C)CN3)CC2)c(C)cc1Nc1nc(Nc2ccccc2S(=O)(=O)C(C)C)n2nccc2n1` [Ex 87] returned an IC50 of 0.029 µM.

Take `COc1cc(C2CCN(C(=O)CN3CCOCC3)CC2)c(C)cc1Nc1nc(Nc2ccccc2S(=O)(=O)C(C)C)n2nccc2n1` [Ex 88]: inhibition was half-maximal at 0.047 µM (IC50).

Consider `COc1cc(C2CCN(CCC(=O)N3CCC3)CC2)c(C)cc1Nc1nc(Nc2ccccc2S(=O)(=O)C(C)C)n2nccc2n1` [Ex 89], for which half-maximal inhibition (IC50) required 0.015 µM.

In the case of `CNC(=O)CCN1CCC(c2cc(OC)c(Nc3nc(Nc4ccccc4S(=O)(=O)C(C)C)n4nccc4n3)cc2C)CC1` [Ex 90], half-maximal inhibition (IC50) required 0.013 µM.

Consider `CC(C)S(=O)(=O)c1ccccc1Nc1nc(Nc2ccc(C3CCN(CC(N)=O)CC3)cc2)nc2ccnn12` [Ex 91], for which half-maximal inhibition (IC50) required 0.128 µM. Compared with the last molecule, the IC50 is about 9.8-fold higher.

`CC(C)S(=O)(=O)c1ccccc1Nc1nc(Nc2ccc(C3CCN(CCC(N)=O)CC3)cc2)nc2ccnn12` [Ex 92]: the IC50 worked out at 0.13 µM.

Regarding `CC(C)S(=O)(=O)c1ccccc1Nc1nc(Nc2ccc(C3CCN(C(=O)CN4CCC4)CC3)cc2)nc2ccnn12` [Ex 93], the IC50 stood at 0.132 µM.

In turn, `COC[C@H](N)C(=O)N1CCC(c2cc(OC)c(Nc3nc(Nc4ccccc4S(=O)(=O)C(C)C)n4nccc4n3)cc2C)CC1` [Ex 94] had an IC50 of 0.016 µM.

In turn, `COc1cc(C2CCN(C(=O)[C@H](C)N(C)CCO)CC2)c(C)cc1Nc1nc(Nc2ccccc2S(=O)(=O)C(C)C)n2nccc2n1` [Ex 95] registered an IC50 of 0.022 µM.

As to `COc1cc(C2CCN(C(=O)[C@@H](C)N3CCCC3)CC2)c(C)cc1Nc1nc(Nc2ccccc2S(=O)(=O)C(C)C)n2nccc2n1` [Ex 96], it took 0.032 µM to reach half-maximal inhibition (IC50).

On to `COc1cc(C2CCN(C(=O)[C@@H](C)NCCO)CC2)c(C)cc1Nc1nc(Nc2ccccc2S(=O)(=O)C(C)C)n2nccc2n1` [Ex 97], for which the IC50 came to 0.032 µM.

`COc1cc(C2CCN(C(=O)[C@@H](C)N(C)CCO)CC2)c(C)cc1Nc1nc(Nc2ccccc2S(=O)(=O)C(C)C)n2nccc2n1` [Ex 98]: half-maximal inhibition (IC50) was put at 0.013 µM.

Turning to `CCN(CC)CCC(=O)N1CCC(c2cc(OC)c(Nc3nc(Nc4ccccc4S(=O)(=O)C(C)C)n4nccc4n3)cc2C)CC1` [Ex 99], the IC50 is 0.035 µM.

For `COc1cc(C2CCN(C(=O)CCCN3CCCC3)CC2)c(C)cc1Nc1nc(Nc2ccccc2S(=O)(=O)C(C)C)n2nccc2n1` [Ex 100], 0.033 µM corresponded to half-maximal inhibition (IC50).

For `COc1cc(C2CCN(C(=O)CCCN3CCOCC3)CC2)c(C)cc1Nc1nc(Nc2ccccc2S(=O)(=O)C(C)C)n2nccc2n1` [Ex 101], inhibition was half-maximal at 0.031 µM (IC50).

The molecule `CCCN(CCC)CC(=O)N1CCC(c2cc(OC)c(Nc3nc(Nc4ccccc4S(=O)(=O)C(C)C)n4nccc4n3)cc2C)CC1` [Ex 102] gave an IC50 of 0.049 µM.

Molecule `CCCNCC(=O)N1CCC(c2cc(OC)c(Nc3nc(Nc4ccccc4S(=O)(=O)C(C)C)n4nccc4n3)cc2C)CC1` [Ex 103] yielded an IC50 of 0.016 µM.

For the molecule `COc1cc(C2CCN(C(=O)CCN3CCCC3)CC2)c(C)cc1Nc1nc(Nc2ccccc2S(=O)(=O)C(C)C)n2nccc2n1` [Ex 104], the IC50 came to 0.049 µM.

Turning to `CCNCC(=O)N1CCC(c2cc(OC)c(Nc3nc(Nc4ccccc4S(=O)(=O)C(C)C)n4nccc4n3)cc2C)CC1` [Ex 105], the IC50 turned out to be 0.015 µM.

Regarding `COc1cc(C2CCN(C(=O)C(C)(CO)CO)CC2)c(C)cc1Nc1nc(Nc2ccccc2S(=O)(=O)C(C)C)n2nccc2n1` [Ex 106], half-maximal inhibition (IC50) required 0.016 µM. The IC50 values of the last two molecules are within 1.5-fold of each other.

In turn, `CCN(CC)CC(=O)N1CCC(c2cc(OC)c(Nc3nc(Nc4ccccc4S(=O)(=O)C(C)C)n4nccc4n3)cc2C)CC1` [Ex 110] gave an IC50 of 0.016 µM.
